Data published in US20220264883A1, “IMIDAZOTHIAZOLE COMPOUNDS AND METHODS FOR TREATING PLANT NEMATODE INFECTIONS” (The Governing Council of the University of Toronto, priority 2019, published 2022).
Like-named read-outs stand apart in the source and are kept apart here.

Assays:
S. cerevisiae = assay: Saccharomyces cerevisiae (budding yeast) dose-response experiments; format: cell-based; details: non-target system; growth over 18 hours
Method: A saturated culture of the yeast strain RY0568 was diluted to an OD600 of 0.015 with fresh YPD media (see ref. 62). 100 μL of this dilute yeast suspension was added to each well of a 96-well plate. The yeast were grown for 4 hours at 30° C. with shaking at 140 rpm. Using a multichannel pipette, 1 μL of chemical solution was added to each well to achieve the desired final concentrations. The final DMSO concentration was 1% (v/v). The microwell plate was then loaded into a TECAN plate reader set at 30° C. The OD600 of each well was measured over an 18-hour period, and the plate was shaken intermittently throughout the run. The areas under the resultant growth curves were calculated using R scripts adapted from those found in the MESS package. The area under the curve at each concentration of a dose-response assay was divided by the area under the curve for the corresponding DMSO control, resulting in a “relative fitness” value for each concentration tested. Three biological replicates were performed for each dose-response experiment, and the relative fitness values were averaged across the three replicates.

[1] = system: Haemonchus contortus eggs; assay: Haemonchus contortus egg hatching assay; format: in vivo; details: for Hatch Rate: 60 μM, 48 hours, ± standard deviation; for reduction of egg hatching relative to the untreated mock control: 60 micromolar, 48-hour treatment
Method: Fresh sheep faeces containing eggs of the MHco3(ISE) strain of H. contortus was supplied by Dr. Doug Colwell and Dawn Gray (Lethbridge Research Station, Agriculture and Agri-Food Canada). Experimental infections used to generate this material were carried out using established methods^72, and were approved by the Lethbridge AAFC Animal Care committee and conducted under animal use license ACC1407. Sheep faeces containing H. contortus eggs were stored at 20° C. for no longer than 48 h before harvesting eggs for use. Eggs were isolated from faeces using a standard saturated salt flotation method^61 immediately before each egg hatch assay. Approximately 100 eggs suspended in 100 μl of water were added to each well of a 96-well plate, and the exemplary compounds of the application were tested at 60 μM, 0.6% DMSO (v/v). Egg hatch rates were determined 48 hours after the initial set-up of the assay by the addition of iodine tincture to stop development. Example 13: Arabidopsis thaliana greening experiments

[2] = system: C. elegans anthelmintic/nematicide-resistant mutants; assay: whole plant or invertebrate; format: in vivo; details: Caenorhabditis elegans
Method: Forty microliters of an HB101 bacterial suspension in liquid NGM (see above) was added to each well of a 96-well flat-bottom culture plate, after which approximately 25 synchronized L1 worms, in 10 μl of M9 buffer (see ref. 59 for the recipe), were added to each well. The synchronized L1 worms were obtained from an embryo preparation performed the previous day (see ref. 59 for the protocol). For the L1 assays, 0.5 μl of chemical solution (or DMSO alone) was immediately added to the wells using a multichannel pipette, the final DMSO concentration is 1% (v/v). The worms were incubated for 3 days at 20° C. and the number of viable animals was counted. […] Although the counts were performed after 3 days of incubation in the chemical, it was noted that the L1s were dead within 24 hours of the addition of the chemicals. For the L2/L3 assays, the worms were incubated in the absence of chemical for 1 day at 20° C. until they reached the L2/L3 stage, at which point chemical was added as described above. The worms were then allowed to incubate for 2 days at 20° C. and the number of viable animals was counted as described for the L1 assay. For the L4 assays, the worms were incubated for 2 days at 20° C. before the addition of chemicals. The L4-stage worms were then incubated in chemical for an additional day before quantifying the number of viable animals. The adult assays were performed the same way as the L4 assays, however HT115 E. coli carrying the empty dsRNA expressing vector L4440 was used in place of HB101 and the worms were cultured at 25° C. as opposed to 20° C. for the entirety of the experiment. The HT115 suspension was made by concentrating a bacterial culture, with an OD600 of ˜ 0.8, five-fold with liquid NGM containing 1 mM IPTG and 100 μg/ml carbenicillin. The HT115 cells were induced with 1 mM IPTG for one hour before concentrating with NGM.
The dose-response experiments for the anthelmintic/nematicide-resistant mutants were carried out as described for the L1 dose-response assays. One notable exception is the aldicarb-resistant strain PR1152. This strain grows slowly, and so the viability counts were performed 5 days after addition of the chemical, as opposed to 3 days, to allow the DMSO control worms to reach adulthood.
At least three biological replicates were performed for each dose-response assay. For each biological replicate, two technical replicates were performed and the numbers of viable animals for each technical replicate were combined (i.e. ˜50 worms assayed per concentration). The number of viable worms at each concentration was divided by the corresponding DMSO control value to give the “relative viability” for each concentration. The “relative viability” values were then averaged across the biological replicates. LC50 values were calculated using Graphpad Prism. The concentration values were log-transformed and a four-parameter logistic curve was fitted to the dose-response data by non-linear regression, from which the LC50 values were extracted.

M. chitwoodi J2 larvae = assay: Meloidogyne chitwoodi in vitro assays (J2 movement); format: in vivo; details: 45 μM, 2 days, relative to DMSO control
Method: M. incognita (Kofoid & White) Chitwood Race 1 (originally isolated in Maryland) was used for all experiments, and was maintained on pepper (Capsicum annuum L.) cv. PA-136 in a greenhouse as previously described^64. Infective J2 juveniles were collected as described in ref.65. The microwell dose-response experiments were carried out similarly to previously described protocols^64, 66. In brief, 100 J2s, in 10 μL of deionized water, were added to the wells of 96-well polystyrene plates, after which 190 μL of deionized water containing dissolved chemical, or DMSO alone, was added to each well. The chemicals were tested at 45 μM, and the final concentration of DMSO in each well was 0.5% (v/v). The wells were covered with a plastic adhesive strip, and the lids of the plates were sealed with parafilm. The plates were incubated at 25° C. The mobile fraction of worms was quantified by counting the number of mobile and immobile worms after 2 days of incubation, and then dividing the number of mobile worms by the total number of worms in the well. Three technical replicates were performed for each treatment, and an average value for the mobile fraction of worms was calculated across the three replicates. The percent effectiveness at inhibiting nematode movement was calculated by dividing the average value for the chemical treatment by the average value for the DMSO control, then subtracting this value from 1, and then multiplying by 100.
M. chitwoodi race 1 (the strain commonly found in the pacific northwest of the United States) was used for all experiments, and was maintained on tomato plants (Solanum lycopersicum ‘Rutgers’) as previously described^73. The M. chitwoodi in vitro assays were performed identically to the M. incognita in vitro assays (see above).

[3] = 120 h, read-out: LC50 in strain PR1152
[4] = read-out: LC50 in strain CB1072
[5] = read-out: LC50 in strain CB3474
[6] = read-out: LC50 in strain CF1038
[7] = read-out: LC50 in strain DA1316
[8] = read-out: LC50 in strain NM1968
[9] = read-out: LC50 in strain RP2674

| Compound | S. cerevisiae LC50 (S. cerevisiae) | Hatch Rate [1] [%] | reduction of egg hatching relative to the untreated mock control [1] | LC50 [2, 3] [µM] | LC50 [2, 4] [µM] | LC50 [2, 5] [µM] | LC50 [2, 6] [µM] | LC50 [2, 7] [µM] | LC50 [2, 8] [µM] | LC50 [2, 9] [µM] | LC50 ([2]; read-out: LC50 in strain VC731) [µM] | LC50 ([2]; read-out: LC50 in strain RB2119) [µM] | % effectiveness at reducing M. chitwoodi movement (M. chitwoodi J2 larvae) [%] |
| --- | --- | --- | --- | --- | --- | --- | --- | --- | --- | --- | --- | --- | --- |
| Clc1ccc(-c2cn3ccsc3n2)cc1 [Ia] | inactive | 1.0 ± 1.7 | 99% | 3.7 | 5.7 | 6.4 | 5.7 | 4.6 | 4.4 | 4.9 | 6.4 |  |  |
| Fc1ccc(-c2cn3ccsc3n2)cc1 [Ib] |  | 0.0 ± 0.0 | completely inhibited egg hatching | 14.9 | 24.3 | 17 | 16 | 14.5 | 16 | 16.4 | 28.5 | 27.5 | 37.5 |
| Cc1csc2nc(-c3ccccc3)cn12 [Compound Ie] |  |  |  |  |  |  |  |  |  |  |  |  | 24.3 |
